The text below walks through data of US20060079696A1, “Substituted compounds derived from N-(benzyl)phenylacetamide, preparation and uses” (GENFIT, priority 2004, published 2006).

One assay addresses T1, hPPARδ (Homo sapiens, UniProt Q03181).
T1 construct: fragments of DNA amplified by PCR corresponding to the DEF domains of the human PPARα, PPARγ PPARδ nuclear receptors; expressed in transfected cells; host or cells: COS-7 (monkey kidney fibroblast line)
T1 sequence (Q03181 211-439 limits assumed): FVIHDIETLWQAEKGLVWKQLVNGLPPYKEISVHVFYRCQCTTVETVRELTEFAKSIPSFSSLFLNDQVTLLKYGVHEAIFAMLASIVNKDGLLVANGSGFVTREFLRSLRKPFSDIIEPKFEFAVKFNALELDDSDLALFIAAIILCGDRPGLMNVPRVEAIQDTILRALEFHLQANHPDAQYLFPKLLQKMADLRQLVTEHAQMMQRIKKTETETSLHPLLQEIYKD
As to the kind of experiment: Gal4-hPPARδ chimera transactivation in COS-7 cells (luciferase). Format: cell-based. As to conditions: induction factor standardised to an internal reference, read-out: % hGal4-PPAR transactivation (10 μM) delta. In outline: (§1)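 COS-7 cells transiently transfected with Gal4-DBD/human PPAR DEF-domain chimeras plus Gal4(RE)_TkpGL3 luciferase reporter (1/10 ratio), then exposed 24 h serum-free to compound at 10 μM. Luciferase induction factor over control, normalised to an internal reference per isoform, expressed as percent activation.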

The subject of assay [1] is Male Dunkin Hartley guinea pigs. Briefly: Lipid-lowering effect in guinea pigs on a cholesterol and fat enriched diet. It is filed as in vivo, guinea pig. Conditions: 200 mpk for 14 days; high fat diet. As for the experimental part:
The lipid-lowering effect of the inventive compounds was evaluated in vivo in Hartley guinea pigs. In guinea pigs, as in man, a diet enriched in cholesterol and fatty acids induces an increase in the plasmatic levels of lipids. Plasmatic lipid levels (cholesterol and triglycerides) after 14 days treatment were measured and compared to the levels observed for non-treated animals (controls).
Male Dunkin Hartley guinea pigs (Harlan, Gannat, France) aged 5-6 weeks at the start of the experiment were put in groups of 6 animals selected such that the distribution of their body weight and of their plasmatic lipid levels determined before the experiment were uniform. The guinea pigs were given a diet containing 0.2% cholesterol and 14% fats (Research Diets Inc.-USA). They were kept in a 12 hour/12 hour light/dark cycle at a constant temperature of 20±3° C. and had free access to water and food. The amount of food eaten and the increase in weight were recorded. The compounds tested were suspended in an aqueous carboxymethylcellulose solution (Sigma C4888) at 1% containing 0.1% Tween80 (Sigma P8074) and administered daily by intragastric gavage for 14 days at a dose of 200 mg/kg/day. […]
The plasmatic concentrations of the lipids (total cholesterol and triglycerides) were measured by enzymatic titrations (bioMérieux-Lyon-France) according to the supplier's recommendations.

The next assay concerns the target T2, hPPARγ (Homo sapiens, UniProt P37231).
T2 construct: fragments of DNA amplified by PCR corresponding to the DEF domains of the human PPARα, PPARγ PPARδ nuclear receptors; expressed in transfected cells; host or cells: COS-7 (monkey kidney fibroblast line)
T2 sequence (P37231 238-503 limits assumed): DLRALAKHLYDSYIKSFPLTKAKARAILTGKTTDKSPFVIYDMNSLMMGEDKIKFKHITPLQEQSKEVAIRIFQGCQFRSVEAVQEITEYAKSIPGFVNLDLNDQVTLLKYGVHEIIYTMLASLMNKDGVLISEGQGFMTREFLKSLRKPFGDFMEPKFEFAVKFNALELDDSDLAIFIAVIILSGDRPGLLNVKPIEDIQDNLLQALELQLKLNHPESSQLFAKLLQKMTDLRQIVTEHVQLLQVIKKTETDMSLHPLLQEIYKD
Briefly: Gal4-hPPARγ chimera transactivation in COS-7 cells (luciferase). Format: cell-based. Conditions: induction factor standardised to an internal reference, read-out: % hGal4-PPAR transactivation (10 μM) gamma. In outline:
as §1

Bounds are passed on as bounds.

For `CCCCC(NC(=O)Cc1ccc(OC(C)(C)C(=O)NS(C)(=O)=O)cc1)c1ccccc1N1CCCCC1` (stereo not shown) [Compound 52, N-[methylsulfonyl]-2-[4-[1-(1-(2-(1-piperidinyl)phenyl)pentyl)aminocarbonylmethyl]phenoxy]-2-methylpropanamide], the activation at 10 µM on hPPARδ was under 10%. In assay [1], the “Cholesterol plasmatic levels, lower than controls” value is “approximately 45%” and the “Triglycerides plasmatic levels, lower than controls” value is listed as “approximately 22%”. Besides, on hPPARγ, the activation at 10 µM was under 10%.
